Results: article PMC8325362, “Drugs repurposed for COVID-19 by virtual screening of 6,218 drugs and cell-based assay” (Proceedings of the National Academy of Sciences of the …, 2021)
Like-named read-outs stand apart in the source and are kept apart here.

Tests used:
[1] = human, cited from earlier work
[2] = tested on: SARS-CoV-2; assay: Checkerboard drug combination assay, SARS-CoV-2 inhibition in Vero cells; format: cell-based; conditions: Severe acute respiratory syndrome coronavirus 2, Vero, read-out: Relative viral inhibition (%); for inhibition at 0.03 µM: Omipalisib 0.03 μM; for inhibition at 0.06 µM: Omipalisib 0.06 μM; for inhibition at 0.12 µM: Omipalisib 0.12 μM; for inhibition at 0.25 µM: Omipalisib 0.25 μM; for inhibition at 0.49 µM: Omipalisib 0.49 μM; for inhibition at 0.98 µM: Omipalisib 0.98 μM; for inhibition at 1.97 µM: Omipalisib 1.97 μM; for inhibition at 0.63 µM: Remdesivir 0.63 μM; for inhibition at 1.26 µM: Remdesivir 1.26 μM; for inhibition at 2.52 µM: Remdesivir 2.52 μM; for inhibition at 5.05 µM: Remdesivir 5.05 μM; for inhibition at 10.09 µM: Remdesivir 10.09 μM; for inhibition at 20.18 µM: Remdesivir 20.18 μM; for inhibition at 40.36 µM: Remdesivir 40.36 μM
[3] = tested on: SARS-CoV-2
[4] = tested on: SARS-CoV-2; assay: microbe, parasite or virus in culture; conditions: Severe acute respiratory syndrome coronavirus 2, Vero, 24 h, read-out: SARS-CoV-2 IC50 in Vero cells
[5] = target: M^pro (Severe acute respiratory syndrome coronavirus 2, UniProt P0DTD1); format: biochemical; conditions: FRET assay, 0.1 to 50 μM
[6] = in vitro; conditions: human
[7] = in vitro; conditions: African green monkey, Relative cell viability (%)
[8] = tested on: SARS-CoV-2; assay: in vitro; conditions: African green monkey
[9] = tested on: SARS-CoV-2; assay: microbe, parasite or virus in culture; format: cell-based; conditions: for IC50: Calu-3 cells, MOI 0.5, 24 h
[10] = in vitro; conditions: African green monkey
[11] = tested on: COVID-19; conditions: cited from earlier work
[12] = Checkerboard drug combination assay, cell viability of Vero cells; conditions: African green monkey, Vero cells (ATCC CCL-81), Relative cell viability (%); for viability at 24 h, 0.63 μM: Remdesivir 0.63 μM; for viability at 24 h, 1.26 μM: Remdesivir 1.26 μM; for viability at 24 h, 2.52 μM: Remdesivir 2.52 μM; for viability at 24 h, 5.05 μM: Remdesivir 5.05 μM; for viability at 24 h, 10.09 μM: Remdesivir 10.09 μM; for viability at 24 h, 20.18 μM: Remdesivir 20.18 μM; for viability at 24 h, 40.36 μM: Remdesivir 40.36 μM
[13] = Severe acute respiratory syndrome coronavirus 2, Calu-3, 24 h

For `COc1ncc(-c2ccc3nccc(-c4ccnnc4)c3c2)cc1NS(=O)(=O)c1ccc(F)cc1F` [Omipalisib], the Cmax ([1]; in vivo, po) is given as ~0.3 µM, the inhibition at 0.03 µM ([2]; Fig. 4A, Remdesivir 0.00 μM) is given as 6% and the inhibition at 0.06 µM ([2]; Fig. 4A, Remdesivir 0.00 μM) is given as 6%. For the same molecule, the inhibition at 0.12 µM ([2]; Fig. 4A, Remdesivir 0.00 μM) was 15%, the inhibition at 0.25 µM ([2]; Fig. 4A, Remdesivir 0.00 μM) was 29% and the inhibition at 0.49 µM ([2]; Fig. 4A, Remdesivir 0.00 μM) was 63%. For the same molecule, the inhibition at 0.98 µM ([2]; Fig. 4A, Remdesivir 0.00 μM) was 73%, the inhibition at 1.97 µM ([2]; Fig. 4A, Remdesivir 0.00 μM) was 78% and the inhibition at 0.03 µM ([2]; Fig. 4D, Tipifarnib 0.00 μM) was 11%. For the same molecule, the inhibition at 0.06 µM ([2]; Fig. 4D, Tipifarnib 0.00 μM) was 31%, the inhibition at 0.12 µM ([2]; Fig. 4D, Tipifarnib 0.00 μM) was 60% and the inhibition at 0.25 µM ([2]; Fig. 4D, Tipifarnib 0.00 μM) was 90%. The inhibition at 0.49 µM ([2]; Fig. 4D, Tipifarnib 0.00 μM) was 93%, the inhibition at 0.98 µM ([2]; Fig. 4D, Tipifarnib 0.00 μM) was 95% and the inhibition at 1.97 µM ([2]; Fig. 4D, Tipifarnib 0.00 μM) was 95%. For the same molecule, the “fold higher antiviral activity than remdesivir” value ([3]; Vero cells) was 20 fold, the IC50 [4] was 490 nM and the “inhibitory activity against M^pro” value [5] was “showed no inhibitory activity”. The CC50 at 24 h [6] was > 20 nM, the viability ([7]; Fig. 4B, Omipalisib 0.03 μM, Remdesivir 0.00 μM) was 82% and the viability ([7]; Fig. 4B, Omipalisib 0.06 μM, Remdesivir 0.00 μM) was 82%. For the same molecule, the viability ([7]; Fig. 4B, Omipalisib 0.12 μM, Remdesivir 0.00 μM) was 80%, the viability ([7]; Fig. 4B, Omipalisib 0.25 μM, Remdesivir 0.00 μM) was 81% and the viability ([7]; Fig. 4B, Omipalisib 0.49 μM, Remdesivir 0.00 μM) was 80%. It also gave a viability ([7]; Fig. 4B, Omipalisib 0.98 μM, Remdesivir 0.00 μM) of 81%, a viability ([7]; Fig. 4B, Omipalisib 1.97 μM, Remdesivir 0.00 μM) of 80% and a viability ([7]; Fig. 4E, Tipifarnib 0.00 μM, Omipalisib 0.03 μM) of 87%. It also gave a viability ([7]; Fig. 4E, Tipifarnib 0.00 μM, Omipalisib 0.06 μM) of 89%, a viability ([7]; Fig. 4E, Tipifarnib 0.00 μM, Omipalisib 0.12 μM) of 88% and a viability ([7]; Fig. 4E, Tipifarnib 0.00 μM, Omipalisib 0.25 μM) of 88%. For the same molecule, the viability ([7]; Fig. 4E, Tipifarnib 0.00 μM, Omipalisib 0.49 μM) was 88%, the viability ([7]; Fig. 4E, Tipifarnib 0.00 μM, Omipalisib 0.98 μM) was 87% and the viability ([7]; Fig. 4E, Tipifarnib 0.00 μM, Omipalisib 1.97 μM) was 84%. The selectivity ratio [8] was 62.8, the “fold higher activity than remdesivir” value ([9]; Calu-3) was 200 fold and the IC50 [9] was 10 nM. The “fold lower IC50 in Calu-3 cells than in Vero cells” value ([9]; Calu-3 vs Vero) was 49 fold, the IC50 [9, 13] was 10 nM and the CC50 at 24 h [10] was 30800 nM.
In the case of `CCC(CC)COC(=O)[C@H](C)N[P@](=O)(OC[C@H]1O[C@@](C#N)(c2ccc3c(N)ncnn23)[C@H](O)[C@@H]1O)Oc1ccccc1` [Remdesivir], the Cmax ([1]; read-out: Approx. Cmax (maximum serum concentration), intravenous injection) is given as ~9 µM, the inhibition at 0.63 µM ([2]; Fig. 4A, Omipalisib 0.00 μM) is given as 4% and the inhibition at 1.26 µM ([2]; Fig. 4A, Omipalisib 0.00 μM) is given as 4%. For the same molecule, the inhibition at 2.52 µM ([2]; Fig. 4A, Omipalisib 0.00 μM) was 1%, the inhibition at 5.05 µM ([2]; Fig. 4A, Omipalisib 0.00 μM) was 20% and the inhibition at 10.09 µM ([2]; Fig. 4A, Omipalisib 0.00 μM) was 55%. The inhibition at 20.18 µM ([2]; Fig. 4A, Omipalisib 0.00 μM) was 81%, the inhibition at 40.36 µM ([2]; Fig. 4A, Omipalisib 0.00 μM) was 89% and the inhibition at 0.63 µM ([2]; Fig. 4G, Tipifarnib 0.00 μM) was 1%. The inhibition at 1.26 µM ([2]; Fig. 4G, Tipifarnib 0.00 μM) was 3%, the inhibition at 2.52 µM ([2]; Fig. 4G, Tipifarnib 0.00 μM) was 16% and the inhibition at 5.05 µM ([2]; Fig. 4G, Tipifarnib 0.00 μM) was 54%. The inhibition at 10.09 µM ([2]; Fig. 4G, Tipifarnib 0.00 μM) was 91%, the inhibition at 20.18 µM ([2]; Fig. 4G, Tipifarnib 0.00 μM) was 97% and the inhibition at 40.36 µM ([2]; Fig. 4G, Tipifarnib 0.00 μM) was 98%. The “antiviral activity against SARS-CoV-2 in Vero cells” value ([3]; assay validation with reference drugs) was “showed antiviral activity”, the IC50 [4] was 10100 nM and the “patients with clinical improvement” value ([11]; 36 out of 53 patients with severe illness) was 68%. The average recovery time ([11]; COVID-19 patients, vs 15 d placebo) was 11 days, the clinical benefits ([11]; severe COVID-19 patients) was “no statistically significant clinical benefits” and the CC50 [6] was > 50000 nM. The viability at 24 h, 0.63 μM ([12]; Fig. 4B, Omipalisib 0.00 μM) was 86%, the viability at 24 h, 1.26 μM ([12]; Fig. 4B, Omipalisib 0.00 μM) was 87% and the viability at 24 h, 2.52 μM ([12]; Fig. 4B, Omipalisib 0.00 μM) was 87%. It also gave a viability at 24 h, 5.05 μM ([12]; Fig. 4B, Omipalisib 0.00 μM) of 91%, a viability at 24 h, 10.09 μM ([12]; Fig. 4B, Omipalisib 0.00 μM) of 92% and a viability at 24 h, 20.18 μM ([12]; Fig. 4B, Omipalisib 0.00 μM) of 93%. It also gave a viability at 24 h, 40.36 μM ([12]; Fig. 4B, Omipalisib 0.00 μM) of 93%, a viability at 24 h, 0.63 μM ([12]; Fig. 4H, Tipifarnib 0.00 μM) of 88% and a viability at 24 h, 1.26 μM ([12]; Fig. 4H, Tipifarnib 0.00 μM) of 90%. The viability at 24 h, 2.52 μM ([12]; Fig. 4H, Tipifarnib 0.00 μM) was 94%, the viability at 24 h, 5.05 μM ([12]; Fig. 4H, Tipifarnib 0.00 μM) was 97% and the viability at 24 h, 10.09 μM ([12]; Fig. 4H, Tipifarnib 0.00 μM) was 95%. It also gave a viability at 24 h, 20.18 μM ([12]; Fig. 4H, Tipifarnib 0.00 μM) of 98%, a viability at 24 h, 40.36 μM ([12]; Fig. 4H, Tipifarnib 0.00 μM) of 94% and a selectivity ratio [8] of 4.96. The IC50 [9, 13] was 2490 nM and the CC50 [10] was > 50000 nM.
